Results on 13 compounds are retold here after ChEMBL document CHEMBL1134266, “Design and pharmacology of quinuclidine derivatives as M2-selective muscarinic receptor ligands” (Bioorg Med Chem Lett, 2001).

What all share (assay type): cell-based
For experiment [1], the target named is T1, Muscarinic acetylcholine receptor M1 (Homo sapiens, UniProt P11229).
T1 sequence (P11229 whole entry): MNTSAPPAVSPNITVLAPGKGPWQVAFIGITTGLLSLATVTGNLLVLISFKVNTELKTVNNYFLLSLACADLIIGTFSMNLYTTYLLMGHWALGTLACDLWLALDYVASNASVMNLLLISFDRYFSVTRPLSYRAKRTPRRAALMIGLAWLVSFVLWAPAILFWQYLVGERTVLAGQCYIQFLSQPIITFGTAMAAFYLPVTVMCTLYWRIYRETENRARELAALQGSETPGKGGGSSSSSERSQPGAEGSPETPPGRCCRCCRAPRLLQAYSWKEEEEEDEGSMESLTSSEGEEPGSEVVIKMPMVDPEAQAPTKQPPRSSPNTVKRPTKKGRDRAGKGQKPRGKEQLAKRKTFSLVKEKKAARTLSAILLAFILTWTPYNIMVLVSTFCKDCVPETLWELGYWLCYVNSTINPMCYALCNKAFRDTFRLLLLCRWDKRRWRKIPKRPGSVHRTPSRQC
In words: Affinity for Muscarinic acetylcholine receptor M1 expressed in CHO cells by [3H]NMS displacement.

In experiment [2] the target is Muscarinic acetylcholine receptor M3 (Homo sapiens, UniProt P20309). The experiment is described as follows: Affinity for Muscarinic acetylcholine receptor M3 expressed in CHO cells by [3H]-NMS displacement.
Experiment [3] deals with T2, Muscarinic acetylcholine receptor M5 (Homo sapiens, UniProt P08912).
T2 sequence (P08912 whole entry): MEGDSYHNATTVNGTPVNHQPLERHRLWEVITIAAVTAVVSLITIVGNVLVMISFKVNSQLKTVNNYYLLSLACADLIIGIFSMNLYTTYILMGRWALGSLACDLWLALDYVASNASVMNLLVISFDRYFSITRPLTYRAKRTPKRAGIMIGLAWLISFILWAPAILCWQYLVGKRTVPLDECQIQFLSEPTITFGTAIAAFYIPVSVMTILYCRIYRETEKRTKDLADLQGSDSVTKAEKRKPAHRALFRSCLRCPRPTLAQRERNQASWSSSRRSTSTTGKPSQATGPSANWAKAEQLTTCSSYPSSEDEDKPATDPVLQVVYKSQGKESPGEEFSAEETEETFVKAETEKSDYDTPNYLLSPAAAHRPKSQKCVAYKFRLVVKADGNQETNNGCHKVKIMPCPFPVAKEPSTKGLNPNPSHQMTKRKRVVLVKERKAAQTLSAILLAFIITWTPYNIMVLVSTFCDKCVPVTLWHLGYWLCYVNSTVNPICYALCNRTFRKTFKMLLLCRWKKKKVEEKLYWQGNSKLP
The experiment is described as follows: Affinity for Muscarinic acetylcholine receptor M5 expressed in CHO cells by [3H]NMS displacement.

The target in experiment [4] is T3, Muscarinic acetylcholine receptor M4 (Homo sapiens, UniProt P08173).
T3 sequence (P08173 whole entry): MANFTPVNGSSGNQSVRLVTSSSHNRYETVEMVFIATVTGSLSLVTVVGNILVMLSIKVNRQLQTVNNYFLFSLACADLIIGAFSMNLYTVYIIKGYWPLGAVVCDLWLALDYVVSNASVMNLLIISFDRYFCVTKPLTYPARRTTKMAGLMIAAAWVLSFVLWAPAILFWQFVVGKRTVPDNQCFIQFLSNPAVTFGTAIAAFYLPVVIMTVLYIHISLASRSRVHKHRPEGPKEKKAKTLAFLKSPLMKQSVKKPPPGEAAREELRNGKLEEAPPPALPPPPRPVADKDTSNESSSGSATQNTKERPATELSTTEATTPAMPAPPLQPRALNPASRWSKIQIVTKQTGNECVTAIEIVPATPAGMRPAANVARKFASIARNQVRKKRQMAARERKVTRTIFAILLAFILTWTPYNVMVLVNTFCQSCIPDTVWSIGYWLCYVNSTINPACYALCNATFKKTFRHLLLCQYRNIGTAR
The experiment is described as follows: Affinity for Muscarinic acetylcholine receptor M4 expressed in CHO cells by [3H]NMS displacement.

Experiment [5] has as its target T4, Muscarinic acetylcholine receptor M2 (Homo sapiens, UniProt P08172).
T4 sequence (P08172 whole entry): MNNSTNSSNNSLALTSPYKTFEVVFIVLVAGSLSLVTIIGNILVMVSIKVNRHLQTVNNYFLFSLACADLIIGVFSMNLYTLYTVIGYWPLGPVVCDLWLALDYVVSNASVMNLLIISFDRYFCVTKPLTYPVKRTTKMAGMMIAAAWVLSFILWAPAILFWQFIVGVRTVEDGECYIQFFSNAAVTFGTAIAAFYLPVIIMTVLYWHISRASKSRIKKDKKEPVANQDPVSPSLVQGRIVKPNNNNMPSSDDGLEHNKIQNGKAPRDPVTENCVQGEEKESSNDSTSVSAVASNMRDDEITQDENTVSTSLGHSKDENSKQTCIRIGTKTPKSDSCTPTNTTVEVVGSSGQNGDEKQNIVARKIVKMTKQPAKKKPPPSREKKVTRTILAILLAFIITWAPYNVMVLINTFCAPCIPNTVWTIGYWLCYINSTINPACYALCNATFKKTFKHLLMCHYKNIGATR
In words: Affinity for Muscarinic acetylcholine receptor M2 expressed in CHO cells by [3H]NMS displacement.

Chain of Muscarinic acetylcholine receptor M3 (P20309 whole entry): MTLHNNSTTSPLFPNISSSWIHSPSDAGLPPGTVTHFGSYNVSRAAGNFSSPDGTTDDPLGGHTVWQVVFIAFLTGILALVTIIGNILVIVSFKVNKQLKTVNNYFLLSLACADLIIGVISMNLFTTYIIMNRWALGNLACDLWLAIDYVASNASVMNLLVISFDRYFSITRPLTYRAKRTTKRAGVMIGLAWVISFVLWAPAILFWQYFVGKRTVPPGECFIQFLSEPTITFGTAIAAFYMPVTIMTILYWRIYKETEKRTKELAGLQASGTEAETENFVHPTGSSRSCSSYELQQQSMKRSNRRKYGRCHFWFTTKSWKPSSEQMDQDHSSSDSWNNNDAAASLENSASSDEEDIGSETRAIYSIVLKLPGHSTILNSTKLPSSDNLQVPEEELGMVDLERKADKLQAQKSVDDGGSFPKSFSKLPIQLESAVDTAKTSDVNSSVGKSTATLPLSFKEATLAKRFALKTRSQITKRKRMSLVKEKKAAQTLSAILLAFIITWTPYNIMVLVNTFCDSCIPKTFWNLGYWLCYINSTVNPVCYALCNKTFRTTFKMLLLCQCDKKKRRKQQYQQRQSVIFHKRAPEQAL

As usually defined, the Ki is the equilibrium dissociation constant of an inhibitor or competing ligand from its target. Higher therefore signals weaker binding. Regarding `CN(C)CCNC(=O)C1=C/C(=C\c2cccnc2)c2ccccc21`, the Ki was 28.2 µM in experiment [1]; 40.7 µM in experiment [2]; 66.1 µM in experiment [3]; 21.4 µM in experiment [4]; 29.5 µM in experiment [5].
For the compound `CN(C)CCOC(=O)C1=C/C(=C\c2ccncc2)c2ccccc21`, the inhibition constant (Ki) is 12 µM in experiment [1]; 15.1 µM in experiment [2]; 26.9 µM in experiment [3]; 14.8 µM in experiment [4]; 10.5 µM in experiment [5].
The matching figures for `CC(C1=C(CCN(C)C)Cc2ccccc21)c1ccccn1` (stereo not drawn): 0.263 µM, 0.191 µM, 0.794 µM, 0.407 µM and 0.0447 µM.
Taken in the same sequence, the figures for `CN(C)CCOC(=O)C1=C/C(=C\c2cccnc2)c2ccccc21` were 11.5 µM, 10 µM, 30.2 µM, 12.6 µM and 7.41 µM.
With `CN(C)CCNC(=O)C1=C/C(=C\c2ccncc2)c2ccccc21`, the Ki in experiment [1] was 24 µM; in experiment [2], 45.7 µM; in experiment [3], 53.7 µM; in experiment [4] it was 24.5 µM; in experiment [5], 15.8 µM.
The matching figures for `CN(C)CCN(C)C(=O)C1=C/C(=C\c2ccccn2)c2ccccc21`: 21.9 µM, 63.1 µM, 52.5 µM, 46.8 µM and 9.12 µM.
For `CN(C)CCNC(=O)C1=C/C(=C\c2ccccn2)c2ccccc21`, the inhibitory constant (Ki) in experiment [1] was 26.9 µM; in experiment [2], 61.7 µM; in experiment [3], 55 µM; in experiment [4] it was 33.9 µM; in experiment [5] it was 41.7 µM.
`CN(C)CCOC(=O)C1=C/C(=C\c2ccccn2)c2ccccc21`: the Ki in experiment [1] was 7.08 µM; in experiment [2], 14.1 µM; in experiment [3] it was 17.8 µM; in experiment [4], 12.3 µM; in experiment [5] it was 12 µM.
Regarding `CN(C)CCC1=C/C(=C\c2ccccn2)c2ccccc21`, the Ki was 9.55 µM in experiment [1]; 21.4 µM in experiment [2]; 19.1 µM in experiment [3]; 12 µM in experiment [4]; 12.6 µM in experiment [5].
`CN(C)CCC1=C/C(=C\c2cccnc2)c2ccccc21`: the inhibitory constant (Ki) in experiment [1] is 18.6 µM; in experiment [2] it was 27.5 µM; in experiment [3] it was 26.9 µM; in experiment [4] it was 22.4 µM; in experiment [5], 15.1 µM.
With `CC1OC(=O)[C@H]2C[C@H]3CCCC[C@@H]3[C@@H](/C=C/C3CCCC(C)N3C)[C@@H]12` (single isomer, unassigned) [HIMBACINE], the Ki in experiment [1] was 0.107 µM; in experiment [3], 0.49 µM; in experiment [5], 0.01 µM.
For the compound `CN1CCN(C(=O)C2=C/C(=C\c3ccncc3)c3ccccc32)CC1`, the inhibitory constant (Ki) in experiment [1] was 29.5 µM; in experiment [2], 97.7 µM; in experiment [3] it was 55 µM; in experiment [4], 89.1 µM; in experiment [5], 38.9 µM.
The matching figures for `CN(C)CCN(C)C(=O)C1=C/C(=C\c2cccnc2)c2ccccc21`: 49 µM, 72.4 µM, 53.7 µM, 55 µM and 14.1 µM.
